Common to all, as to format: biochemical
In assay [1] the target is human JAK2 catalytic kinase (JH1) domain (Homo sapiens (Human), UniProt O60674). The assay is described as follows: ADP-Glo Kinase Assay, recombinant JAK2 catalytic kinase (JH1) domain. The conditions noted are these: recombinant JH1 domain 0.2 nM, 15 μM ATP, JAK3-974 peptide, mean, read-out: JAK2 biochem IC50 (nM) Mean. The gist of the method: (§1)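 ADP-Glo luminescence with 50 μM peptide and 100 min reactions: JAK1 4 nM with JAK3-342 peptide; JAK2, JAK3 and TYK2 at 0.2, 0.3 and 2 nM with JAK3-974 peptide. Compounds tested from 10 or 1 μM top, 11 points, 3-fold. IC50 from a 4-parameter logistic fit of normalized activity.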

The target of assay [2] is human JAK1 catalytic kinase (JH1) domain (Homo sapiens (Human), UniProt P23458). The assay is described as follows: ADP-Glo Kinase Assay, recombinant JAK1 catalytic kinase (JH1) domain. The conditions noted are these: recombinant JH1 domain 4 nM, 35 μM ATP, JAK3-342 peptide, mean, read-out: JAK1 biochem IC50 (nM) Mean. The gist of the method:
as §1
(ADP-Glo first removes unused ATP, then detects ADP through luciferase.)

Assay [3] has as its target human JAK3 catalytic kinase (JH1) domain (Homo sapiens (Human), UniProt P52333). The assay can be described thus: ADP-Glo Kinase Assay, recombinant JAK3 catalytic kinase (JH1) domain. Conditions: recombinant JH1 domain 0.3 nM, 4 μM ATP, JAK3-974 peptide, mean, read-out: JAK3 biochem IC50 (nM) Mean. The method in brief: as §1
The target in assay [4] is human TYK2 catalytic kinase (JH1) domain (Homo sapiens (Human), UniProt P29597). The assay can be described thus: ADP-Glo Kinase Assay, recombinant TYK2 catalytic kinase (JH1) domain. Conditions: recombinant JH1 domain 2 nM, 10 μM ATP, JAK3-974 peptide, mean, read-out: TYK2 biochem IC50 (nM) Mean. The gist of the method:
as §1

Where only a bound is given, the exact number is not on record here.

We go through 22 compounds from patent publication US20240360157A1, “TYK2 INHIBITORS” (BIOGEN MA INC., priority 2021, published 2024).

human TYK2 catalytic kinase (JH1) domain, sequence (P29597 897-1176): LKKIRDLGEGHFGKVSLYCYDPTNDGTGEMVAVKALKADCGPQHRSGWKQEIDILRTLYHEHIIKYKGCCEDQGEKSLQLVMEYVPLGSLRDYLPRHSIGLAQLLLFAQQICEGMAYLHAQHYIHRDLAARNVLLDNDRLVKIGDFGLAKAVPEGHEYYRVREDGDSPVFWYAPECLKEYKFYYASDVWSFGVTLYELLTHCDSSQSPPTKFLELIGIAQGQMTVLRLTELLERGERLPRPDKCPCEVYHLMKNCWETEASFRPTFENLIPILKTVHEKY
human JAK3 catalytic kinase (JH1) domain, sequence (P52333 822-1111): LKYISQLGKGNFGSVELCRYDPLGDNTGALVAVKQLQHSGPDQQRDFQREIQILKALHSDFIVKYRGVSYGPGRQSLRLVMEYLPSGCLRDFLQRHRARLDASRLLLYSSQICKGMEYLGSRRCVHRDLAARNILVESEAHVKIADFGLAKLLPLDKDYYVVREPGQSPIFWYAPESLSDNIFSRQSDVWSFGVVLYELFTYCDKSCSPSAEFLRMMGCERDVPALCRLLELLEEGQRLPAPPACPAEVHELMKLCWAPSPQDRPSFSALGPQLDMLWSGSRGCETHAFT
human JAK1 catalytic kinase (JH1) domain, sequence (P23458 875-1153): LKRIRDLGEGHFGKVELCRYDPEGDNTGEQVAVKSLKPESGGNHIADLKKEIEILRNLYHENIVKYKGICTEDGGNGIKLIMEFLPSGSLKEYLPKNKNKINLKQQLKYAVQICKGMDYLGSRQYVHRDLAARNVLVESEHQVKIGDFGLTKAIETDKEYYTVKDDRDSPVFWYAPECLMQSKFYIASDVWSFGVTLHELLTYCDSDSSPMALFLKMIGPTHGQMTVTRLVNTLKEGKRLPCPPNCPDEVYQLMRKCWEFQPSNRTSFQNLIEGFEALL
human JAK2 catalytic kinase (JH1) domain, sequence (O60674 849-1124): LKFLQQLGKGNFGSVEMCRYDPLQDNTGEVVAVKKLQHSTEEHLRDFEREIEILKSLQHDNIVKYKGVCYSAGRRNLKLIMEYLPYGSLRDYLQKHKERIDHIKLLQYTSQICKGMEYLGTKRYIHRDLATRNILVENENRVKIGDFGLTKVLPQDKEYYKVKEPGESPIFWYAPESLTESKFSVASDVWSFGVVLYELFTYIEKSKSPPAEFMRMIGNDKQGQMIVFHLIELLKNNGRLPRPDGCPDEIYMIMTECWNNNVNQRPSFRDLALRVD

The term IC50 denotes the midpoint of a concentration-inhibition curve. In the case of `Cn1cc(-c2cc3c(N4CC5CCC(C4)N5C(=O)[C@@H]4C[C@H]4C#N)ncnn3c2)cn1` (single isomer, unassigned) [Example 74], the IC50 in assay [1] was 1910 nM; in assay [2], 1280 nM; in assay [3], 4040 nM; in assay [4] it was 126 nM.

As to `O=C([C@@H]1C[C@H]1F)N1C2CCC1CN(c1ccnn3cc(-c4ncc(F)cn4)cc13)C2` [Example 108, ((1S,2R)-2-fluorocyclopropyl)(3-(6-(5-fluoropyrimidin-2-yl)pyrrolo[1,2-b]pyridazin-4-yl)-3,8-diazabicyclo[3.2.1]octan-8-yl)methanone], the concentration for half-maximal inhibition (IC50) in assay [1] amounted to 1050 nM; in assay [2], 909 nM; in assay [3], 3920 nM; in assay [4], 48 nM.

On to `O=C(N1C2CCC1CN(c1ncnn3cc(-c4cnn(C(F)F)c4)cc13)C2)C1(C(F)(F)F)CC1` [Example 45, (3-(6-(1-(difluoromethyl)-1H-pyrazol-4-yl)pyrrolo[2,1-f][1,2,4]triazin-4-yl)-3,8-diazabicyclo[3.2.1]octan-8-yl)(1-(trifluoromethyl)cyclopropyl)methanone], for which the IC50 is 9490 nM in assay [1], 7300 nM in assay [2], 6010 nM in assay [3] and 988 nM in assay [4].

Take `Cn1cc(-c2cc3c(N4CC5CCC(C4)N5C(=O)[C@@H]4C[C@H]4F)ccnn3c2)ccc1=O` [Example 172]: the IC50 in assay [1] was found to be 54 nM; in assay [2], 32 nM; in assay [3], 595 nM; in assay [4], 2.6 nM.

On to `CC(F)(F)C(=O)N1C2CCC1CN(c1ncnn3cc(-c4cnn(C(F)F)c4)cc13)C2` [Example 56, 1-(3-(6-(1-(difluoromethyl)-1H-pyrazol-4-yl)pyrrolo[2,1-f][1,2,4]triazin-4-yl)-3,8-diazabicyclo[3.2.1]octan-8-yl)-2,2-difluoropropan-1-one], for which the IC50 in assay [1] was determined as 3340 nM; in assay [2], 1140 nM; in assay [3], 1360 nM; in assay [4] it was 233 nM.

As for `O=C(C1CC1)N1C2CCC1CN(c1ncnn3cc(-c4cnn([C@@H]5CCOC5)c4)cc13)C2` [Example 156, cyclopropyl(3-(6-(1-((R)-tetrahydrofuran-3-yl)-1H-pyrazol-4-yl)pyrrolo[2,1-f][1,2,4]triazin-4-yl)-3,8-diazabicyclo[3.2.1]octan-8-yl)methanone], the IC50 in assay [1] was 3860 nM; in assay [2], 1500 nM; in assay [3], 3850 nM; in assay [4] it was 251 nM.

Turning to `COc1nn(C)cc1-c1cc2c(N3CC4CCC(C3)N4C(=O)[C@@H]3C[C@H]3F)ccnn2c1` [Example 134, ((1S,2R)-2-fluorocyclopropyl)(3-(6-(3-methoxy-1-methyl-1H-pyrazol-4-yl)pyrrolo[1,2-b]pyridazin-4-yl)-3,8-diazabicyclo[3.2.1]octan-8-yl)methanone], the IC50 in assay [1] came out at 24 nM; in assay [2] it was 114 nM; in assay [3], 588 nM; in assay [4], 1.4 nM.

`Cc1cnc(-c2cc3c(N4CC5CCC(C4)N5C(=O)[C@@H]4C[C@H]4F)ccnn3c2)cn1` [Example 131, ((1S,2R)-2-fluorocyclopropyl)(3-(6-(5-methylpyrazin-2-yl)pyrrolo[1,2-b]pyridazin-4-yl)-3,8-diazabicyclo[3.2.1]octan-8-yl)methanone]: the IC50 in assay [1] worked out at 672 nM; in assay [2], 562 nM; in assay [3] it was 5470 nM; in assay [4], 50.7 nM.

For the compound `O=C(C1CC1)N1C2CCC1CN(c1ncnn3cc(-c4ccncc4)cc13)C2` [Example 181], the IC50 came to 7860 nM in assay [1], 1040 nM in assay [2], 5520 nM in assay [3] and 229 nM in assay [4].

For the compound `Cn1cc(-c2cc3c(N4CC5CCC(C4)N5C(=O)CC(F)(F)F)ncnn3c2)cn1` [Example 59, 3,3,3-trifluoro-1-(3-(6-(1-methyl-1H-pyrazol-4-yl)pyrrolo[2,1-f][1,2,4]triazin-4-yl)-3,8-diazabicyclo[3.2.1]octan-8-yl)propan-1-one], the IC50 came out at 9730 nM in assay [1], 3500 nM in assay [2], 6940 nM in assay [3] and 652 nM in assay [4].

As for `N#CC1CC1c1nc2c(N3CC4CCC(C3)N4C(=O)[C@@H]3C[C@H]3F)ccnc2[nH]1` (stereo partly drawn) [Example 215, 2-(7-(8-((1S,2R)-2-fluorocyclopropane-1-carbonyl)-3,8-diazabicyclo[3.2.1]octan-3-yl)-3H-imidazo[4,5-b]pyridin-2-yl)cyclopropane-1-carbonitrile], the IC50 in assay [1] is 5350 nM; in assay [2], 2180 nM; in assay [3], 10000 nM; in assay [4] it was 484 nM.

For `O=C([C@H]1C[C@@H]1F)N1C2CCC1CN(c1ncnn3cc(-c4cnn(C(F)F)c4)cc13)C2` (racemic) [Example 54, Rac-(3-(6-(1-(difluoromethyl)-1H-pyrazol-4-yl)pyrrolo[2,1-f][1,2,4]triazin-4-yl)-3,8-diazabicyclo[3.2.1]octan-8-yl)((1R,2S)-2-fluorocyclopropyl)methanone], the IC50 in assay [1] amounted to 1320 nM; in assay [2], 645 nM; in assay [3], 4230 nM; in assay [4] it was 37.1 nM.

In the case of `CN(C)c1cc(-c2cc3c(N4CC5CCC(C4)N5C(=O)[C@@H]4C[C@H]4F)ccnn3c2)ccn1` [Example 128, (3-(6-(2-(dimethylamino)pyridin-4-yl)pyrrolo[1,2-b]pyridazin-4-yl)-3,8-diazabicyclo[3.2.1]octan-8-yl)((1S,2R)-2-fluorocyclopropyl)methanone], the IC50 was found to be 68 nM in assay [1], 29 nM in assay [2], 844 nM in assay [3] and 2.9 nM in assay [4].

As for `Cn1cc(-c2cc3c(N4CC5CCC(C4)N5C(=O)[C@@H]4C[C@H]4F)ncnn3c2)cc(F)c1=O` [Example 167], the IC50 in assay [1] is 1740 nM; in assay [2] it was 2210 nM; in assay [3], 10000 nM; in assay [4] it was 95 nM.

On to `O=C(C1C[C@H]1F)N1C2CCC1CN(c1ncnc3[nH]c(-c4cncc(F)c4)cc13)C2` (stereo partly shown) [Example 229], for which the IC50 in assay [1] was 1740 nM; in assay [2], 1240 nM; in assay [3] it was 10000 nM; in assay [4], 122 nM.

`O=C(C1CC1(F)F)N1C2CCC1CN(c1ncnn3cc(-c4cnn(C(F)F)c4)cc13)C2` (stereo not shown) [Example 49, (2,2-difluorocyclopropyl)(3-(6-(1-(difluoromethyl)-1H-pyrazol-4-yl)pyrrolo[2,1-f][1,2,4]triazin-4-yl)-3,8-diazabicyclo[3.2.1]octan-8-yl)methanone]: the IC50 stood at 2100 nM in assay [1], 475 nM in assay [2], 4900 nM in assay [3] and 81 nM in assay [4].

For the compound `O=C([C@@H]1C[C@H]1F)N1C2CCC1CN(c1ccnn3cc(-c4ccnc(N5CC(F)(F)C5)c4)cc13)C2` [Example 120, (3-(6-(2-(3,3-difluoroazetidin-1-yl)pyridin-4-yl)pyrrolo[1,2-b]pyridazin-4-yl)-3,8-diazabicyclo[3.2.1]octan-8-yl)((1S,2R)-2-fluorocyclopropyl)methanone], the IC50 was determined as 636 nM in assay [1], 1650 nM in assay [2], 10000 nM in assay [3] and 85.2 nM in assay [4].

Consider `O=C([C@@H]1C[C@H]1F)N1C2CCC1CN(c1ccnc3[nH]c(C4(F)CC4)nc13)C2` [Example 210, ((1S,2R)-2-fluorocyclopropyl)(3-(2-(1-fluorocyclopropyl)-3H-imidazo[4,5-b]pyridin-7-yl)-3,8-diazabicyclo[3.2.1]octan-8-yl)methanone], for which the IC50 in assay [1] was 2600 nM; in assay [2], 798 nM; in assay [3], 5520 nM; in assay [4], 398 nM.

Consider `O=C([C@@H]1C[C@H]1F)N1C2CCC1CN(c1ccnn3cc([C@H]4CC4(F)F)cc13)C2` (single isomer, unassigned) [Example 135], for which the IC50 was 8220 nM in assay [1], 2010 nM in assay [2], no less than 10000 nM in assay [3] and 125 nM in assay [4].

Turning to `COc1ccc(-c2cc3c(N4CC5CCC(C4)N5C(=O)[C@@H]4C[C@H]4F)ncnc3[nH]2)cn1` [Example 225, ((1S,2R)-2-fluorocyclopropyl)(3-(6-(6-methoxypyridin-3-yl)-7H-pyrrolo[2,3-d]pyrimidin-4-yl)-3,8-diazabicyclo[3.2.1]octan-8-yl)methanone], the IC50 in assay [1] was 357 nM; in assay [2], 245 nM; in assay [3], 735 nM; in assay [4], 21.3 nM.

For `COc1cc(-c2cc3c(N4CC5CCC(C4)N5C(=O)[C@@H]4C[C@H]4F)c(F)cnc3[nH]2)ccn1` [Example 139, (3-(5-fluoro-2-(2-methoxypyridin-4-yl)-1H-pyrrolo[2,3-b]pyridin-4-yl)-3,8-diazabicyclo[3.2.1]octan-8-yl)((1S,2R)-2-fluorocyclopropyl)methanone], the IC50 in assay [1] came out at 74 nM; in assay [2] it was 39 nM; in assay [3], 144 nM; in assay [4], 5.5 nM.

Take `Cn1cc(-c2cc3c(N4CC5CCC(C4)N5C(=O)C4CC4)ccnn3c2)cn1` [Example 15, cyclopropyl(3-(6-(1-methyl-1H-pyrazol-4-yl)pyrrolo[1,2-b]pyridazin-4-yl)-3,8-diazabicyclo[3.2.1]octan-8-yl)methanone]: the IC50 came out at 376 nM in assay [1], 646 nM in assay [2], 888 nM in assay [3] and 13 nM in assay [4].
